Consider two molecules from patent publication EP0636624A1, “Thiazole derivatives as lipoxygenase inhibitors” (ZENECA LIMITED, priority 1993, dated 1995).

The test system of one data set is hepatic enzymes. The experiment in a line: Auto-induction on repeated dosing (fall in C max / AUC). In kind it is in vivo. The note with it: repeated dosing to a warm-blooded animal. The text has this: The result is a decrease on repeat dosing of the quantity of the compound present in the animal's blood stream as shown, for example, by a decrease in the maximum concentration achieved (C max) or, for example, a decrease in the exposure of the animal to the compound as measured by the area under the curve (AUC) of a plot of the concentration of the compound in the blood stream versus time after dosing.

Data set [1] concerns the target T1, 5-LO (Homo sapiens, UniProt P09917).
T1 construct: incubating a test compound with heparinised human blood, prior to challenge with the calcium ionophore A23187; endogenous in cells; host or cells: blood cells of heparinised human whole blood
T1 sequence (P09917 1-674): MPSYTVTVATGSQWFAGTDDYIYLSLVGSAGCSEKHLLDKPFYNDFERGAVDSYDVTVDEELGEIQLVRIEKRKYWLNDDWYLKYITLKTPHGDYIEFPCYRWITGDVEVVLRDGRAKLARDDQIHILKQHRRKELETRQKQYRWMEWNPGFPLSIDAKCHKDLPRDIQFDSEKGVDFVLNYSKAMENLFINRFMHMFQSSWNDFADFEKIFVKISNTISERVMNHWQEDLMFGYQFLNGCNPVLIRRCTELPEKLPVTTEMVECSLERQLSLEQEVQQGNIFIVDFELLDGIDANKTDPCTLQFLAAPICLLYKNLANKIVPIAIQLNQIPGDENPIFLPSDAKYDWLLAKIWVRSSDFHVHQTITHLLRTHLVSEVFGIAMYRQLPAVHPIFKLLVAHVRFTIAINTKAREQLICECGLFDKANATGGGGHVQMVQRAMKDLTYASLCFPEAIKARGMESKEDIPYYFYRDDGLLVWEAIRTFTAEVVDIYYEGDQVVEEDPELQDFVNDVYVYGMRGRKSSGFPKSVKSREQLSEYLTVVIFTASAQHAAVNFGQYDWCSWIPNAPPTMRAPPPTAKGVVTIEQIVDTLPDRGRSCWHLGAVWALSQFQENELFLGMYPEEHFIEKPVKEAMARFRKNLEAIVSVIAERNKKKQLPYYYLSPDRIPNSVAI
The experiment in a line: Test a): in vitro heparinised human blood challenged with calcium ionophore A23187, LTB4 radioimmunoassay. In kind it is cell-based. Particulars: heparinised human blood, A23187 challenge; read-out: IC₅₀ against LTB₄ in test a). The text has this: As stated previously, the compounds of the formula I are inhibitors of the enzyme 5-LO. […] J. Pharmacol. 1985, 84, 34P) which involve the use of a protein-LTB₄ conjugate produced using the procedure of Young et alia (Prostaglandins, 1983, 26(4), 605-613). The effects of a test compound on the enzyme cyclooxygenase (which is involved in the alternative metabolic pathway for arachidonic acid and gives rise to prostaglandins, thromboxanes and related metabolites) may be measured at the same time using the specific radioimmunoassay for thromboxane B₂(TxB₂) described by Carey and Forder (see above). This test provides an indication of the effects of a test compound against 5-LO and also cyclooxygenase in the presence of blood cells and proteins. It permits the selectivity of the inhibitory effect on 5-LO or cyclooxygenase to be assessed. • b) An ex vivo assay system, which is a variation of test a) above, involving administration to a group of rats of a test compound (usually orally as the suspension produced when a solution of the test compound in dimethylsulphoxide is added to carboxymethylcellulose), blood collection, heparinisation, challenge with A23187 and radioimmunoassay of LTB₄ and TxB₂. […]

Data set [2] relates to 5-LO. The experiment in a line: Test c): in vivo zymosan-induced LTB4 liberation in rat subcutaneous air pouch. More on the design: species or system male rats. Particulars: oral, approximate value, 180 min.

As for `COC1(c2ccc(Sc3ccc4c(c3)CCC(=O)N4C)s2)CCOCC1` [4-methoxy-4-[5-(1-methyl-2-oxo-1,2,3,4-tetrahydroquinolin-6-ylthio)-thien-2-yl]tetrahydropyran], the auto-induction entry in the data set with hepatic enzymes is given as “possesses the undesirable property of auto-induction”.
Take `CO[C@]1(c2cnc(Sc3ccc4c(c3)CCC(=O)N4C)s2)CCO[C@@H](C)C1` [Example 3, (2S,4R)-4-methoxy-2-methyl-4-[2-(1-methyl-2-oxo-1,2,3,4-tetrahydroquinolin-6-ylthio)thiazol-5-yl]tetrahydropyran]: at 5-LO [1], the IC50 was 60 nM. Further, in the data set with 5-LO [2], the “IC₅₀ against LTB₄ in test c)” value is on record as “approximately 0.2 mg/kg”.
